Each structure is given as a SMILES string.

The target of the first test is MtDXPS (Mycobacterium tuberculosis, UniProt P9WNS3). Put plainly: biochemical.
Chain of MtDXPS (P9WNS3 whole entry, looked up): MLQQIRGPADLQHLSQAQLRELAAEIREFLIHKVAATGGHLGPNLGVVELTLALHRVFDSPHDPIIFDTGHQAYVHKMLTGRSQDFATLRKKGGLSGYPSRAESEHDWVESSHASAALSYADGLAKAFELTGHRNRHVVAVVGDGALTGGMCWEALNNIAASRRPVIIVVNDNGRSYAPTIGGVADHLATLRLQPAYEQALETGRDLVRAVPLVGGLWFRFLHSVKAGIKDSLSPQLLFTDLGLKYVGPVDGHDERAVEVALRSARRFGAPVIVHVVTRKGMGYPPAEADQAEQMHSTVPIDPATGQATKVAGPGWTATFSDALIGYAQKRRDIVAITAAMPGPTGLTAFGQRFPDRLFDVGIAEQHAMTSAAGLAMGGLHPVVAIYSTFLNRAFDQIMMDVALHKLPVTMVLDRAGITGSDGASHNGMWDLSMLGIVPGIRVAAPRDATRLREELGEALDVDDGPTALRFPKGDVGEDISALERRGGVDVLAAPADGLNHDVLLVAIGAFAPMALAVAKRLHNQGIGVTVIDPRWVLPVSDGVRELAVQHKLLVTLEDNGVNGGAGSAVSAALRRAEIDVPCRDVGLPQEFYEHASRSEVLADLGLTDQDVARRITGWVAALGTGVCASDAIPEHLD
Details: not given
In general, IC50 refers to the midpoint of a concentration-inhibition curve. `COc1cc(Cl)c(/C=C2\SC(=S)N(CC(=O)O)C2=O)c(OC)c1` [Compound 50] showed an IC50 above 240 µM. As for `O=C(O)Cc1ccc(-n2cnnn2)cc1` [Compound 53], the “inhibition at 1000 μM” value is ~ 25 % inhibition. Compound `NC(Cc1ccc(O)cc1)c1nc2ccccc2[nH]1` (centres unmarked) [Compound 75] gave an IC50 above 1000 µM. `O=Cc1ccc(O[C@@H]2O[C@H](CO)[C@@H](O)[C@H](O)[C@H]2O)cc1` [Compound 82] displayed an IC50 above 1000 µM.

Still in this test, the particulars now being: IC50 (μM).
In the case of `Cc1cccc(C(=O)N2CCC(C(N)=O)CC2)c1` [Compound 44], the IC50 was above 1000 µM.

The same test, now with this note: IC50 against MtDXPS.
On to `CC(C)c1ccc(C(C)N2Cc3nc(N)ncc3C2=O)cc1` (centres unmarked) [Compound 4], for which the IC50 was 1020 ± 88 µM. On the same count and under the same terms, under `Cc1nc(C)c(-c2csc(Nc3cccc(Cl)c3C)n2)s1` [Compound 8] stands 117 ± 25 µM.

Still in this test, the particulars now being: Table S1, first round of LBVS; MtDXPS; read-out: IC50.
On to `CSc1ccc(C2N=C(N)Nc3nc4ccccc4n32)cc1` (centres unmarked) [Compound 37], for which the concentration for half-maximal inhibition (IC50) is above 60 µM. On the same count and under the same terms, under `Cc1sc(N)c(C(=O)c2ccccc2)c1C` [Compound 38] stands above 120 µM; under `Cc1n[nH]c(O)c1C1OC(=O)c2ccccc21` (centres unmarked) [Compound 39], above 1000 µM; under `CCn1c(S)nnc1-c1csc2c1CCCC2` [Compound 40], above 240 µM. The same measure, in the same setting: in the case of `Cc1ccccc1-n1c(S)nnc1-c1csc2c1CCCC2` [Compound 41] it was above 8 µM; in that of `Cc1nn(CCc2nnc(S)n2Cc2ccccc2)c(C)c1Br` [Compound 42], above 30 µM.

As for `Oc1ncnc(O)c1C(c1cccs1)c1c(O)ncnc1O` [Compound 43], the IC50 is above 500 µM. `Cc1nc(-c2ccccc2)nc(Nc2ccccc2)c1Cc1ccccc1` [Compound 45]: the IC50 was above 15 µM. In the case of `COc1ccc2[nH]cc(C3NC(N)=Nc4nc5ccccc5n43)c2c1` (centres unmarked) [Compound 46], the IC50 is above 500 µM. As for `CC(C)c1ccc(CN(C(=O)COc2ccccc2)c2ccccn2)cc1` [Compound 47], the IC50 is above 30 µM. For the compound `O=C(O)CCc1ccc(-c2ccc(F)cc2)n1Cc1ccco1` [Compound 48], the IC50 was above 500 µM. As to `Cc1ccc(C2NC(N)=Nc3nc4ccccc4n32)o1` (centres unmarked) [Compound 49], the IC50 was above 1000 µM.

`Nn1c(S)nnc1Cn1cnc2ccccc21` [Compound 51]: the IC50 was above 1000 µM. In the case of `CCNC(=S)Nc1ccc(Cc2ccncc2)cc1` [Compound 52], the IC50 was above 240 µM. For `S=c1[nH]ccn1Cc1ccccc1` [Compound 54], the IC50 is above 500 µM. Still for that read-out and setting: in the case of `Cc1cc(C(=O)O)c(-c2ccccc2)o1` [Compound 55] it was above 1000 µM. The same measure, in the same setting: under `O=C1NC(=O)C(c2ccccc2)N1` (centres unmarked) [Compound 56] stands above 1000 µM. Same read-out and setting: under `N=C1NC(=O)C(CC(N)=O)S1` (centres unmarked) [Compound 57] stands above 1000 µM. In the case of `CN(C)Cc1ccc(O)cc1` [Compound 58], the IC50 is above 1000 µM. For `C=CCN1C(=O)N/C(=C/c2ccc(O)c(OCC)c2)C1=O` [Compound 59], the IC50 is above 30 µM. In the case of `O=C1N/C(=C/c2ccc(O)c(I)c2)C(=O)N1c1ccc(Cl)cc1` [Compound 60], the IC50 was above 120 µM. On to `OCc1cccnc1-c1nc2ccccc2s1` [Compound 61], for which the IC50 was above 60 µM.

As to `COc1ccc(OC)c(C2CC(=O)NC3=C2C(=O)CCC3)c1` (centres unmarked) [Compound 63], the IC50 was above 500 µM. The same measure, in the same setting: under `CC(C)(CO)NCc1cccs1` [Compound 64] stands above 1000 µM. With `O=c1c2ncccc2nc(O)n1Cc1cccnc1` [Compound 65], the IC50 is above 240 µM. In the case of `COCC(=O)N(C)Cc1cn(C)nc1C` [Compound 66], the IC50 is above 1000 µM. As for `CCn1nccc1CN(C)C(=O)C1CCC1` [Compound 67], the IC50 is above 1000 µM. Turning to `CN1C(=O)CCC(C(=O)O)C1c1ccccc1` (centres unmarked) [Compound 68], the IC50 is above 1000 µM. On the same count and under the same terms, in the case of `CCCCNC(=O)N(C)Cc1c(C)nn(CC)c1C` [Compound 69] it was above 1000 µM. Still for that read-out and setting: in the case of `COc1ccc(Cn2ccnc2)cc1N` [Compound 70] it was above 1000 µM; in that of `CCC1CCC2(CC1)N=C(O)N(CC(=O)c1ccc3c(c1)CCC3)C2=O` (centres unmarked) [Compound 71], above 60 µM.

As to `Cc1cc(C)n(CCc2nnc(S)n2-c2ccc(Br)cc2)n1` [Compound 72], the IC50 is above 120 µM.

As to `Cc1ccc(-n2c(S)nnc2CCn2nc(C)cc2C)cc1` [Compound 73], the IC50 was above 500 µM.

Consider `Cc1cc(C)n(CCc2nnco2)n1` [Compound 74], for which the IC50 is above 1000 µM.

With `O=C(O)c1cc(O)ccc1C=C(Cl)Cl` [Compound 79], the IC50 is above 1000 µM.

`CCCCC(C(=O)O)C(C)CC(=O)Nc1nncs1` (centres unmarked) [Compound 80]: the IC50 is above 1000 µM. Turning to `O=C(Nc1ccc(O)cc1C(=O)O)c1ccco1` [Compound 81], the IC50 is above 60 µM. On to `Cc1c(/N=C2\C(=O)N(CC(=O)O)c3ccccc32)c(=O)n(-c2ccccc2)n1C` [Compound 84], for which the IC50 was above 120 µM. In the case of `CN1NC(c2ccc(O)cc2)C2C(=O)NC(=O)C21` (centres unmarked) [Compound 85], the IC50 was above 120 µM. The same measure, in the same setting: in the case of `Cc1ccc(C(=O)Nc2ccc(O)cc2C(=O)O)cc1` [Compound 86] it was above 120 µM. On the same count and under the same terms, in the case of `CCc1cc(C(N)=O)c(NC(=O)c2cccnc2)s1` [Compound 87] it was above 60 µM; in that of `COc1cc(/C=C2\C(=O)Nc3ccc(Br)cc32)cc(OC)c1O` [Compound 88], above 120 µM; in that of `CCCSc1nnc(-c2ccccc2NC(C)=O)c(O)n1` [Compound 89], above 120 µM. On to `CCCCC(NS(=O)(=O)c1cc2c3c(c1)c(C)cc(=O)n3CC2)C(=O)O` (centres unmarked) [Compound 90], for which the IC50 was above 60 µM.

Staying with this test, now noted: Table S2, second round of LBVS; MtDXPS; read-out: IC50.
For `OCCc1nc2ccccc2n1Cc1cccc(Cl)c1` [Compound 100], the IC50 is above 236 µM.

For the compound `OCCc1nc2ccccc2n1Cc1ccc(Cl)cc1` [Compound 101], the IC50 is above 440 µM. Take `OCCc1nc2ccccc2n1Cc1ccc(F)cc1` [Compound 102]: the IC50 was above 540 µM. Still for that read-out and setting: in the case of `CC(C)(C)c1ccc(Cn2c(CCCO)nc3ccccc32)cc1` [Compound 103] it was above 90 µM; in that of `CC(C)Cc1nc2ccccc2n1Cc1ccc(Cl)cc1` [Compound 104], above 63 µM; in that of `COc1ccc(Cc2nc3ccccc3n2CC(O)CO)cc1` (centres unmarked) [Compound 105], above 2000 µM. Turning to `CNc1ncc2c(n1)CN(CCc1ccccc1F)C2=O` [Compound 106], the IC50 is above 340 µM.

Turning to `Nc1ncc2c(n1)CN(Cc1ccccc1C(F)(F)F)C2=O` [Compound 107], the half-inhibitory concentration (IC50) was above 380 µM.

Take `Nc1ncc2c(n1)CN(Cc1ccc3c(c1)OCO3)C2=O` [Compound 108]: the IC50 is above 260 µM.

As to `Cc1ccc(/C(=N\O)c2ccc(O)cc2O)cc1` [Compound 110], the IC50 is above 1000 µM. With `COc1ccc(OC/C(=N\O)c2ccc(O)cc2O)cc1` [Compound 111], the IC50 was above 300 µM. Same read-out and setting: in the case of `O=C1/C(=N\O)c2ccc(Cl)cc2N1Cc1ccccc1` [Compound 112] it was above 900 µM; in that of `O=C1/C(=N\O)c2c(Cl)cccc2N1Cc1ccccc1` [Compound 113], above 30 µM. As for `Cc1ccc(C)c2c1/C(=N/O)C(=O)N2Cc1ccccc1` [Compound 114], the IC50 was above 60 µM.

`ON=C(c1ccccc1)c1ccccc1` [Compound 115]: the IC50 is above 500 µM. Same read-out and setting: in the case of `Nc1ccncc1/C(=N/O)c1ccccc1` [Compound 116] it was above 2000 µM; in that of `O/N=C(/c1ccccc1)c1ccccn1` [Compound 117], above 500 µM.

The values are drawn from paper PMC9491098, “Discovery of novel drug-like antitubercular hits targeting the MEP pathway enzyme DXPS by strategic application of ligand-based virtual screening” (Chemical Science, 2022).
